Values joined by “and” are separate entries in the source; they are usually repeats but may differ in a detail not shown here. Equal values may be shown once.
Tests used:
[1] = tested on: CD8+ effector T-cells and dendritic cells (DCs); conditions: therapeutical doses, in vitro; cited from earlier work
[2] = tested on: patients with metastatic melanoma (stage IV); assay: Phase II clinical trial MC1076 of timed administration of TMZ; type: in vivo, human; conditions: for number of patients with PFS >4 months: 17 patients
Excerpt: Eligible patients had unresectable, histologically confirmed stage IV disease, age over 18 years, measurable disease as defined by the Response Evaluation Criteria in Solid Tumors (RECIST), Eastern Cooperative Oncology Group (ECOG) performance status of 0-2, and life expectancy≥3 months (See Table 10). Both previously untreated patients and patients who have had prior therapy for their metastatic disease (excluding prior exposure to TMZ) were eligible. All patients provided signed informed written consent, and the study was approved by the Mayo Clinic Rochester Institutional Review Board. The TMZ dose was 150 mg/m2 on days 1-5 of cycle 1 and was increased to 200 mg/m2 on days 1-5 each month for all subsequent cycles if well tolerated. Patients were treated every 28 days until progression, unacceptable toxicity or patient refusal. Prior to initiation of first chemotherapy cycle, eligible patients underwent serial daily peripheral blood testing for 10 days of 69 immune biomarkers (42 cytokines, and 27 immune cell subtypes) per time point/patient. At the end of the sample collections, all data was jointly analyzed and a day for individualized TMZ delivery was calculated according to the proposed model (below). Patients received their therapy during the time, predicted by the model. All patients were followed for clinical outcomes.
Time-dependent profiles of blood concentration of IL-12p70, CD197/CD206, IL-1ra were built based on a series of pre-treatment measurements. The data was fitted to a sine curve and the extrapolated for a period of 10 days. Chemotherapy was initiated on the day when the extrapolated value of the combination of these immune parameters was at maximum.
The MC1076 study was designed to assess the anti-tumor activity of timed administration of TMZ. A two-stage phase II clinical trial design will be used to test the hypothesis that the 4 month PFS rate is at most 45% against the alternative hypothesis that the 4 month PFS rate is at least 65%. Progression-free survival was defined as the time from registration to documentation of disease progression or death without disease progression documented.
Analysis of infradian (multi-day) dynamics in systemic immunity of patients with metastatic melanoma. Based on data, both published and from our lab, we hypothesized that the anti-tumor systemic immune response in patients with cancer is not a static but a dynamic event. In order to study the global temporal behavior of systemic anti-tumor immunity, we conducted a phase II clinical trial (MC1076; NCT01328535). In this study, patients with metastatic melanoma underwent a period of immunological monitoring consisting of 10 daily PB collections (10 mL) over 12 days prior to initiation of therapy with TMZ. There was no blood collection on weekend days. At the end of the sample collection period, samples were batched analyzed (to minimize inter-assay variability for a given patient) for measurement of dynamic changes of plasma cytokines and immune cell subsets using established, standardized, and Good Laboratory Practice (GLP)-validated methodology in our laboratory.^35 Time-dependent profiles of immune variables (cytokines and immune cell subsets) were then analyzed and an optimal day for initiation of TMZ therapy was prospectively computed by the algorithm described below. […]

[3] = tested on: patients with unresectable stage IV malignant melanoma; assay: Clinical trial of timed TMZ chemotherapy (timed on CRP oscillation) in stage IV melanoma patients; type: in vivo, human
Excerpt: In an example clinical trial described herein, the patient population included patients with unresectable stage IV malignant melanoma. Eligible patients had unresectable, histologically confirmed stage IV disease, age over 18 years, measurable disease as defined by the Response Evaluation Criteria in Solid Tumors (RECIST), Eastern Cooperative Oncology Group (ECOG) performance status (PS) of 0-2, and life expectancy ≥3 months. Both newly diagnosed, previously untreated patients, as well as patients who have had prior therapy for their metastatic disease were enrolled.
Treatment was initiated with temozolomide (TMZ) 150 mg/m^2 on days 1-5 on cycle 1 and the dose was increased to 200 mg/m^2 for all subsequent cycles if tolerated. Patients were treated every 4 weeks until progression, unacceptable toxicity or patient refusal. Prior to initiation of first chemotherapy cycle, eligible patients underwent peripheral blood testing for immunological biomarkers (immune variables) every 2-3 days for a period of two weeks. The blood samples were tested for a total of 52 variables; that is, 52 measurements of cytokine concentrations and cell counts in blood samples.
The time series of six CRP concentration measurements was fitted to a sine curve. The curve was then extrapolated for two periods and the next consecutive peaks of CRP concentration were predicted. Based on the periodicity of CRP oscillations, TMZ chemotherapy was initiated prior to the estimated time of the next CPR peak, or on day 14 post-registration if the peak could not be identified.
The purpose of the curve fitting analysis is to determine whether any of the measured immune variables change in a predictable fashion following a cyclical pattern (dynamic equilibrium of immunity and cancer). Therefore, the goal of the curve fitting analysis is to assess whether concentrations of plasma cytokines/chemokines and immune cells fluctuate, and if so, to determine whether these fluctuations follow a mathematically predictable cyclical pattern. To that end, the plasma levels for the 52 immune variables ([…] different cytokines/chemokines/growth factors and the percentage of 22 immune cell subsets) in serial blood samples collected every 2-3 days prior to initiation of TMZ therapy were measured in 10 patients with metastatic malignant melanoma. […] Technical reproducibility was assessed by the coefficient of variation among duplicates (average coefficient of variation was 5.13% for 1593 data points).

[4] = standard TMZ doses, 200 mg/m2 daily over 5 days, cycles every 28 days; cited from earlier work
[5] = tested on: non proliferating peripheral blood lymphocytes; conditions: therapeutical doses, in vitro; cited from earlier work
[6] = LMR <1 on the day of TMZ initiation
[7] = LMR >1 on the day of TMZ initiation

SMILES: Cn1nnc2c(C(N)=O)ncn2c1=O [TMZ, temozolomide]
- impairment of the function of CD8+ effector T-cells and dendritic cells [1]: did not impair
- number of patients with PFS <4 months [2, 6]: 7
- number of patients with PFS >4 months [2, 6]: 1
- number of patients with PFS <4 months [2, 7]: 3
- number of patients with PFS >4 months [2, 7]: 6
- PFS ([2]; Table 11, one line per patient, 24 patients, time from registration to progression, CR = complete response): 644 days and 242 days and 184 days and 47 days and 83 days and 301 days and 136 days and 752 days and 102 days and 78 days and 39 days and 107 days and 72 days (2×) and 53 days and 48 days and 80 days and 73 days and 130 days and 77 days and 133 days and 198 days
- PFS ([3]; Table 4, one line per patient, 8 patients with metastatic cutaneous melanoma, TMZ 150 to 200 mg/m^2 days 1-5 every 4 weeks): 70 days and 68 days and 37 days and 916 days and 748 days and 132 days and 91 days and 77 days
- PFS ([3]; Table 6, one line per patient, same 8 melanoma patients): 37 days and 91 days and 32 days and 77 days and 916 days and 841 days and 68 days and 70 days
- average PFS ([3]; four patients with sum of ranks of IL12p70 and CD197/CD206 above 15): 68 days
- average PFS ([3]; four patients with sum of ranks of IL12p70 and CD197/CD206 below 15): 466 days
- PFS ([3]; two patients with disorganized (non-curve-fitting) anti-tumor immune responses): 71 days and 74 days
- serum concentrations [4]: up to 50 μM
- impairment of non proliferating peripheral blood lymphocytes [5]: did not impair
